Values of other authors in publication PMC12181400, “Leveraging viral genome sequences and machine learning models for identification of potentially selective antiviral agents” (Communications Chemistry, 2025).
Counter-ions that a name gives are not always drawn. Like-named read-outs stand apart in the source and are kept apart here.

Key:
Details in all cases: cited from earlier work
[1] = tested on: cell viability (tox21-ar-mda-kb2-luc-agonist-p3)
[2] = tested on: cell viability (tox21-ar-mda-kb2-luc-antagonist-p2)
[3] = tested on: cell viability (tox21-car-antagonist-p1)
[4] = tested on: cell viability (tox21-ap1-agonist-p1)
[5] = tested on: cell viability (tox21-are-bla-p1)
[6] = tested on: cell viability (tox21-car-agonist-p1)
[7] = curve rank −9 to 9, 0 = inactive, ref NCATS Tox21 public data browser

Cc1cc2c(cc1S(N)(=O)=O)S(=O)(=O)CCC2 [Meticrane]
0: tox21-ar-mda-kb2-luc-agonist-p3-viability (curve rank) [1, 7] | tox21-ar-mda-kb2-luc-antagonist-p2-viability (curve rank) [2, 7] | tox21-car-antagonist-p1-viability (curve rank) [3, 7] | tox21-ap1-agonist-p1-viability (curve rank) [4, 7] | tox21-are-bla-p1-viability (curve rank) [5, 7] | tox21-car-agonist-p1-viability (curve rank) [6, 7]

CCOc1ccc(NC(C)=O)cc1 [Phenacetin]
0: tox21-ar-mda-kb2-luc-agonist-p3-viability (curve rank) [1] | tox21-ar-mda-kb2-luc-antagonist-p2-viability (curve rank) [2] | tox21-car-antagonist-p1-viability (curve rank) [3] | tox21-ap1-agonist-p1-viability (curve rank) [4] | tox21-are-bla-p1-viability (curve rank) [5] | tox21-car-agonist-p1-viability (curve rank) [6]

COc1cc(-c2ccc(=O)[nH]n2)ccc1OC(F)F [Zardaverine]
0: tox21-ar-mda-kb2-luc-agonist-p3-viability (curve rank) [1, 7] | tox21-ar-mda-kb2-luc-antagonist-p2-viability (curve rank) [2, 7] | tox21-car-antagonist-p1-viability (curve rank) [3, 7] | tox21-ap1-agonist-p1-viability (curve rank) [4, 7] | tox21-are-bla-p1-viability (curve rank) [5, 7] | tox21-car-agonist-p1-viability (curve rank) [6, 7]

CC(C)(C)NCC(O)COc1cccc2c1CCC(=O)N2 (stereo not drawn) [Carteolol hydrochloride]
0: tox21-ar-mda-kb2-luc-agonist-p3-viability (curve rank) [1] | tox21-ar-mda-kb2-luc-antagonist-p2-viability (curve rank) [2] | tox21-car-antagonist-p1-viability (curve rank) [3] | tox21-ap1-agonist-p1-viability (curve rank) [4] | tox21-are-bla-p1-viability (curve rank) [5] | tox21-car-agonist-p1-viability (curve rank) [6]

COc1cccc(C2(O)CCCCC2CN(C)C)c1.Cl (stereo not drawn) [Tramadol hydrochloride]
0: tox21-ar-mda-kb2-luc-agonist-p3-viability (curve rank) [1, 7] | tox21-ar-mda-kb2-luc-antagonist-p2-viability (curve rank) [2, 7] | tox21-car-antagonist-p1-viability (curve rank) [3, 7] | tox21-ap1-agonist-p1-viability (curve rank) [4, 7] | tox21-are-bla-p1-viability (curve rank) [5, 7] | tox21-car-agonist-p1-viability (curve rank) [6, 7]

CCOC(=O)[N-]c1cn(N2CCOCC2)n[o+]1 [Molsidomine]
0: tox21-ar-mda-kb2-luc-agonist-p3-viability (curve rank) [1] | tox21-ar-mda-kb2-luc-antagonist-p2-viability (curve rank) [2] | tox21-car-antagonist-p1-viability (curve rank) [3] | tox21-ap1-agonist-p1-viability (curve rank) [4] | tox21-are-bla-p1-viability (curve rank) [5] | tox21-car-agonist-p1-viability (curve rank) [6]

Nc1cc(N2CCCCC2)nc(N)[n+]1[O-] [Minoxidil]
0: tox21-ar-mda-kb2-luc-agonist-p3-viability (curve rank) [1] | tox21-ar-mda-kb2-luc-antagonist-p2-viability (curve rank) [2] | tox21-car-antagonist-p1-viability (curve rank) [3] | tox21-ap1-agonist-p1-viability (curve rank) [4] | tox21-are-bla-p1-viability (curve rank) [5] | tox21-car-agonist-p1-viability (curve rank) [6]

NC(=O)C[S+]([O-])C(c1ccccc1)c1ccccc1 (stereo not drawn) [Modafinil]
0: tox21-ar-mda-kb2-luc-agonist-p3-viability (curve rank) [1, 7] | tox21-ar-mda-kb2-luc-antagonist-p2-viability (curve rank) [2, 7] | tox21-car-antagonist-p1-viability (curve rank) [3, 7] | tox21-ap1-agonist-p1-viability (curve rank) [4, 7] | tox21-are-bla-p1-viability (curve rank) [5, 7] | tox21-car-agonist-p1-viability (curve rank) [6, 7]

COP(=S)(OC)Oc1ccc(SC)c(C)c1 [Fenthion]
0: tox21-ar-mda-kb2-luc-agonist-p3-viability (curve rank) [1, 7] | tox21-ar-mda-kb2-luc-antagonist-p2-viability (curve rank) [2, 7] | tox21-car-antagonist-p1-viability (curve rank) [3, 7] | tox21-ap1-agonist-p1-viability (curve rank) [4, 7] | tox21-are-bla-p1-viability (curve rank) [5, 7] | tox21-car-agonist-p1-viability (curve rank) [6, 7]

O=C(CCBr)N1CCN(C(=O)CCBr)CC1 [Pipobroman]
0: tox21-ar-mda-kb2-luc-agonist-p3-viability (curve rank) [1] | tox21-ar-mda-kb2-luc-antagonist-p2-viability (curve rank) [2] | tox21-car-antagonist-p1-viability (curve rank) [3] | tox21-ap1-agonist-p1-viability (curve rank) [4] | tox21-are-bla-p1-viability (curve rank) [5] | tox21-car-agonist-p1-viability (curve rank) [6]

NC(=O)c1ccc([N+](=O)[O-])cc1Cl [2-Chloro-4-nitrobenzamide]
0: tox21-ar-mda-kb2-luc-agonist-p3-viability (curve rank) [1, 7] | tox21-ar-mda-kb2-luc-antagonist-p2-viability (curve rank) [2, 7] | tox21-car-antagonist-p1-viability (curve rank) [3, 7] | tox21-ap1-agonist-p1-viability (curve rank) [4, 7] | tox21-are-bla-p1-viability (curve rank) [5, 7] | tox21-car-agonist-p1-viability (curve rank) [6, 7]

Nc1ccc(C(=O)O)cc1 [4-Aminobenzoic acid]
0: tox21-ar-mda-kb2-luc-agonist-p3-viability (curve rank) [1] | tox21-ar-mda-kb2-luc-antagonist-p2-viability (curve rank) [2] | tox21-car-antagonist-p1-viability (curve rank) [3] | tox21-ap1-agonist-p1-viability (curve rank) [4] | tox21-are-bla-p1-viability (curve rank) [5] | tox21-car-agonist-p1-viability (curve rank) [6]

CC1(C)Oc2ccc(C#N)cc2[C@@H](N2CCCC2=O)[C@@H]1O [Levcromakalim]
0: tox21-ar-mda-kb2-luc-agonist-p3-viability (curve rank) [1] | tox21-ar-mda-kb2-luc-antagonist-p2-viability (curve rank) [2] | tox21-car-antagonist-p1-viability (curve rank) [3] | tox21-ap1-agonist-p1-viability (curve rank) [4] | tox21-are-bla-p1-viability (curve rank) [5] | tox21-car-agonist-p1-viability (curve rank) [6]

CCOP(=S)(OCC)Oc1cc(C)nc(C(C)C)n1 [Diazinon]
0: tox21-ar-mda-kb2-luc-agonist-p3-viability (curve rank) [1, 7] | tox21-ar-mda-kb2-luc-antagonist-p2-viability (curve rank) [2, 7] | tox21-car-antagonist-p1-viability (curve rank) [3, 7] | tox21-ap1-agonist-p1-viability (curve rank) [4, 7] | tox21-are-bla-p1-viability (curve rank) [5, 7] | tox21-car-agonist-p1-viability (curve rank) [6, 7]

Cc1cc(O)ccc1Cl [4-Chloro-3-methylphenol]
0: tox21-ar-mda-kb2-luc-agonist-p3-viability (curve rank) [1, 7] | tox21-ar-mda-kb2-luc-antagonist-p2-viability (curve rank) [2, 7] | tox21-car-antagonist-p1-viability (curve rank) [3, 7] | tox21-ap1-agonist-p1-viability (curve rank) [4, 7] | tox21-are-bla-p1-viability (curve rank) [5, 7] | tox21-car-agonist-p1-viability (curve rank) [6, 7]

CCC1(C2=NCCN2)Cc2ccccc2O1 (stereo not drawn) [Efaroxan]
0: tox21-ar-mda-kb2-luc-agonist-p3-viability (curve rank) [1, 7] | tox21-ar-mda-kb2-luc-antagonist-p2-viability (curve rank) [2, 7] | tox21-car-antagonist-p1-viability (curve rank) [3, 7] | tox21-ap1-agonist-p1-viability (curve rank) [4, 7] | tox21-are-bla-p1-viability (curve rank) [5, 7] | tox21-car-agonist-p1-viability (curve rank) [6, 7]

Brc1c(NC2=NCCN2)ccc2nccnc12 [Brimonidine]
0: tox21-ar-mda-kb2-luc-agonist-p3-viability (curve rank) [1] | tox21-ar-mda-kb2-luc-antagonist-p2-viability (curve rank) [2] | tox21-car-antagonist-p1-viability (curve rank) [3] | tox21-ap1-agonist-p1-viability (curve rank) [4] | tox21-are-bla-p1-viability (curve rank) [5] | tox21-car-agonist-p1-viability (curve rank) [6]

CN1C(=O)CC[C@H]1c1cccnc1 [Cotinine]
0: tox21-ar-mda-kb2-luc-agonist-p3-viability (curve rank) [1] | tox21-ar-mda-kb2-luc-antagonist-p2-viability (curve rank) [2] | tox21-car-antagonist-p1-viability (curve rank) [3] | tox21-ap1-agonist-p1-viability (curve rank) [4] | tox21-are-bla-p1-viability (curve rank) [5] | tox21-car-agonist-p1-viability (curve rank) [6]

c1ccc2c(c1)CCCC2C1=NCCN1 (stereo not drawn) [Tetrahydrozoline hydrochloride]
0: tox21-ar-mda-kb2-luc-agonist-p3-viability (curve rank) [1] | tox21-ar-mda-kb2-luc-antagonist-p2-viability (curve rank) [2] | tox21-car-antagonist-p1-viability (curve rank) [3] | tox21-ap1-agonist-p1-viability (curve rank) [4] | tox21-are-bla-p1-viability (curve rank) [5] | tox21-car-agonist-p1-viability (curve rank) [6]

Nc1nc2ncc(CNc3ccc(C(=O)N[C@@H](CCC(=O)O)C(=O)O)cc3)nc2c(=O)[nH]1 [Folic acid]
0: tox21-ar-mda-kb2-luc-agonist-p3-viability (curve rank) [1] | tox21-ar-mda-kb2-luc-antagonist-p2-viability (curve rank) [2] | tox21-car-antagonist-p1-viability (curve rank) [3] | tox21-ap1-agonist-p1-viability (curve rank) [4] | tox21-are-bla-p1-viability (curve rank) [5] | tox21-car-agonist-p1-viability (curve rank) [6]

C[C@]12CCC(=O)C=C1CC[C@@H]1[C@@H]2[C@@H](O)C[C@@]2(C)[C@H]1CC[C@]2(O)C(=O)CO [Hydrocortisone]
0: tox21-ar-mda-kb2-luc-agonist-p3-viability (curve rank) [1] | tox21-ar-mda-kb2-luc-antagonist-p2-viability (curve rank) [2] | tox21-car-antagonist-p1-viability (curve rank) [3] | tox21-ap1-agonist-p1-viability (curve rank) [4] | tox21-are-bla-p1-viability (curve rank) [5] | tox21-car-agonist-p1-viability (curve rank) [6]

CC(=O)Nc1nnc(S(N)(=O)=O)s1 [Acetazolamide]
0: tox21-ar-mda-kb2-luc-agonist-p3-viability (curve rank) [1] | tox21-ar-mda-kb2-luc-antagonist-p2-viability (curve rank) [2] | tox21-car-antagonist-p1-viability (curve rank) [3] | tox21-ap1-agonist-p1-viability (curve rank) [4] | tox21-are-bla-p1-viability (curve rank) [5] | tox21-car-agonist-p1-viability (curve rank) [6]

CCCCCC(C)N.O=S(=O)(O)O (stereo not drawn) [2-Aminoheptane sulfate]
0: tox21-ar-mda-kb2-luc-agonist-p3-viability (curve rank) [1, 7] | tox21-ar-mda-kb2-luc-antagonist-p2-viability (curve rank) [2, 7] | tox21-car-antagonist-p1-viability (curve rank) [3, 7] | tox21-ap1-agonist-p1-viability (curve rank) [4, 7] | tox21-are-bla-p1-viability (curve rank) [5, 7] | tox21-car-agonist-p1-viability (curve rank) [6, 7]
